Reference: patent US10668149B2, “Combination therapies for heme malignancies with anti-CD38 antibodies and survivin inhibitors” (Janssen Biotech, Inc., priority 2015, dated 2020)
Entries after “also recorded” stand apart in the source; their conditions may differ.

Columns and labels:
UM9 MM cells = test: Compartment-specific BLI-based ADCC cytotoxicity assay, UM9; type: cell-based, human; conditions: serial concentrations, PBMC:MM 30:1, 4 hours
Protocol: hBMSC were plated at a density of 1×10^4 cells/well in white opaque flat-bottomed 96-well plates (Costar) in 100 μl culture medium. After an adherence period of six hours, luc-transduced MM cell lines were added at a density of 1×10^4 cells/well in BMSC-coated or uncoated wells. In experiments in which YM155 was tested, YM155 was added at indicated concentrations together with MM cells. After 16-20 hours, daratumumab was added at indicated concentrations and left for 15 minutes at room temperature. Freshly isolated PBMC from healthy individuals were then added as effector cells at the indicated effector target ratios. 4 hours after addition of PBMC, 125 μg/ml beetle luciferin (Promega) was added and the bioluminescent signal emitted from surviving MM cells was determined within 20 minutes using a luminometer (SpectraMax, Molecular Devices). The percentage survival of MM cells was calculated using the formula: % survival=(mean bioluminescent signal in the absence of PBMCs/mean bioluminescent signal in the presence of PBMCs)×100%. In these assays the survival of MM cells is a direct reflection of ADCC mediated lysis and correlates with classical chromium release assays as described in McMillin et al., Nat Med 16:483-489, 2010. […]

RPMI-8226 cells = test: Compartment-specific BLI-based ADCC cytotoxicity assay, RPMI-8226; type: cell-based, human; conditions: 4 hours; for lysis of cells: daratumumab 0.3 μg/ml, YM155 1 nM, PBMC effector:target 40:1
Protocol: hBMSC were plated at a density of 1×10^4 cells/well in white opaque flat-bottomed 96-well plates (Costar) in 100 μl culture medium. After an adherence period of six hours, luc-transduced MM cell lines were added at a density of 1×10^4 cells/well in BMSC-coated or uncoated wells. In experiments in which YM155 was tested, YM155 was added at indicated concentrations together with MM cells. After 16-20 hours, daratumumab was added at indicated concentrations and left for 15 minutes at room temperature. Freshly isolated PBMC from healthy individuals were then added as effector cells at the indicated effector target ratios. 4 hours after addition of PBMC, 125 μg/ml beetle luciferin (Promega) was added and the bioluminescent signal emitted from surviving MM cells was determined within 20 minutes using a luminometer (SpectraMax, Molecular Devices). The percentage survival of MM cells was calculated using the formula: % survival=(mean bioluminescent signal in the absence of PBMCs/mean bioluminescent signal in the presence of PBMCs)×100%. In these assays the survival of MM cells is a direct reflection of ADCC mediated lysis and correlates with classical chromium release assays as described in McMillin et al., Nat Med 16:483-489, 2010.
Induction of ADCC by healthy donor BMSCs against two CD38^+ luciferase transduced MM cell lines, UM9 and RPMI was tested with serial concentrations of daratumumab in the presence or absence of HD-PBMCs as effector cells in compartment-specific BLI-based cytotoxicity assays.
In the assays, daratumumab and YM155 were used at a concentration of 0.3 μg/ml and 1 nM, respectively, for RPMI-8226 cells and at a concentration of 1 μg/ml and 120 nM for MM patient samples, respectively. Healthy donor PBMCs were used as effector cells at effector:target cell ratio of 40:1 for RPMI-8226 cells and 30:1 for MM patient samples.

primary CD138+ MM cells = test: FACS based ADCC assay in Multiple Myeloma BM-MNC; type: cell-based, human; conditions: presence of autologous MM-BMSCs; both donors; 24 hours
Protocol: Frozen BM-MNCs from MM patients with 15-35% CD138^+ MM cells were used in FACS-based ADCC assays. The cells were thawed and cultured in 10% HS in RPMI. After 16-20 h, BM-MNCs were counted by trypan blue exclusion and 4×10^4 cells/well were plated in 96 round bottom plates. Daratumumab and/or YM155 were added in the wells as indicated per experiment. After 24 hours, cells were stained with fluorescent conjugated anti-CD138, anti-CD38, anti-CD56 and anti-CD3 antibodies and the survival of primary CD138^+ MM cells in the BM-MNCs was determined by FACS as previously described (Groen et al., Blood 120:e9-e16, 2012). Percentage lysis of MM cells was deduced using the following formula: % lysis cells=1−(counts of surviving CD138^+ cells in treated wells/counts of number of surviving CD138^+ cells in control wells)×100%.
Ability of BMSCs to protect primary MM cells from daratumumab-induced ADCC was also evaluated in a FACS-based ADCC assay using methodology described above. In the assays, BM-MNCs containing at least 15% CD138^+ malignant plasma cells and sufficient numbers of autologous effector NK cells were incubated with daratumumab to induce ADCC. The BM-MNCs were tested either alone or in co-culture with autologous BMSCs to evaluate the effect of BMSCs. FACS-based viability assay was performed after 24 hours of culture to determine CD138^+ surviving cells and calculate lysis. […]

MM cell line UM9 = test: In vivo tumor targeting, UM9 in humanized BM-like scaffolds; design: species or system RAG2−/−γc−/− mice; conditions: UM9 scaffolds s.c.; YM155 1 mg/kg/d for 10 days by s.c. infusion pump; T cell-depleted HD-PBMCs given
Description: FIG. 5. Antitumor effect of daratumumab and YM155 combination therapy. Analysis of tumor load per treatment group in RAG2^−/−γc^−− mice implanted with UM9 cells. Hybrid scaffolds coated with human MSCs and loaded with luciferase transduced MM cell line UM9 were implanted subcutaneously in the back of RAG2^−/−γc^−− mice (4 scaffolds per mice). Ten days after implantation, the growing tumors were visualized and quantified by BLI. Different groups of mice (n=4) were then either treated with vehicle control (control) or treated with daratumumab, YM155 or daratumumab plus YM155 as indicated. […] Mice were monitored weekly by BLI. Results are expressed as the mean tumor load in each scaffold. […] The statistical differences between mice treated with daratumumab and mice treated with daratumumab plus YM155 were calculated using the Mann-Whitney U-test. […]
The in vivo relevance of the combination of daratumumab with YM155 was tested in the preclinical xenograft model in RAG2^−/−gc^−/− mice, in which MM tumors were grown in a humanized BM-like niche created by subcutaneous implantation of ceramic scaffolds coated with human BMSCs. […] Ten days after implantation, the growing tumors were visualized and quantified by BLI. […] Mice were monitored weekly by BLI. […] Statistical differences between mice treated with daratumumab and mice treated with daratumumab plus YM155 were calculated using the Mann-Whitney U-test.

MM cells (CD138+ cells) = test: Viability of MM cells in BM-MNCs cultured with YM155 by FACS; type: cell-based, human; conditions: BM-MNCs of MM patients; different doses of YM155; 24 hours
Protocol: Effect of YM155 on NK cell viability was evaluated first. BM-MNCs of MM patients were cultured in the presence of different doses of YM155 for 24 hours. Viability of MM cells (CD138^+ cells) and NK cells (CD3^−CD138^−CD56^+ cells) were determined by FACS.

[1] = system: NK cells (CD3−CD138−CD56+ cells); test: Effect of YM155 on NK cell viability by FACS; type: cell-based, human; conditions: 24 hours
Protocol: FIG. 3. […] HD-PBMCs and patient bone marrow mononuclear cells (BMMNCs) were incubated with the indicated concentrations of YM155 for 24 hours. The number of viable CD3^−CD56^+ NK cells was determined by flow cytometry and the percent lysis was calculated using the untreated samples as negative control. Effect of YM155 on NK cell viability was evaluated first. BM-MNCs of MM patients were cultured in the presence of different doses of YM155 for 24 hours. Viability of MM cells (CD138^+ cells) and NK cells (CD3^−CD138^−CD56^+ cells) were determined by FACS.

Row | Molecule | daratumumab-induced ADCC (UM9 MM cells; absence of BMSCs) | sensitivity to daratumumab-induced ADCC (UM9 MM cells; presence of BMSCs) | lysis of cells (RPMI-8226 cells; absence of BMSCs) | daratumumab-induced ADCC (RPMI-8226 cells; absence of BMSCs, serial concentrations, PBMC:MM 30:1) | lysis of cells (RPMI-8226 cells; presence of BMSCs) | sensitivity to daratumumab-induced ADCC (RPMI-8226 cells; presence of BMSCs, serial concentrations, PBMC:MM 30:1) | induction of ADCC of primary MM cells (primary CD138+ MM cells) | tumor growth (BLI) (MM cell line UM9) | viability of MM cells (CD138+ cells) (MM cells (CD138+ cells)) | viability of NK cells ([1]; BM-MNCs of MM patients, different doses of YM155) | NK cell lysis ([1]; HD-PBMCs and patient BMMNCs, indicated concentrations of YM155)
1 | daratumumab: anti-CD38 antibody of IgG1/κ subtype, VH SEQ ID NO: 4 and VL SEQ ID NO: 5 | dose dependent fashion | less sensitive | about 20% | dose dependent fashion | about 10% | less sensitive | less efficient | marginal effect | – | – | –
2 | COCCn1c2c([n+](Cc3cnccn3)c1C)C(=O)c1ccccc1C2=O [YM155, 4,9-Dihydro-1-(2-methoxyethyl)-2-methyl-4,9-dioxo-3-(2-pyrazinylmethyl)-1H-naphth[2,3-d]imidazolium bromide] | – | – | about 20% | – | no effect | – | – | more pronounced | some toxicity | not affected; also recorded: does not negatively interfere | does not induce NK cell lysis
